Measurements published in ChEMBL document CHEMBL1201862, “PubChem BioAssay data set” (2004).
The source made the active and inactive calls.

Columns and labels:
[1] = biological target: T1, Microphthalmia-associated transcription factor (Homo sapiens, UniProt O75030); experiment: TRPM1 promoter luciferase signal decrease, dose response, MITF inhibitor project, cell-based, SK-MEL-5, cherry-picked, set 3 (AID 493073); format: functional
T1 sequence (O75030 whole entry): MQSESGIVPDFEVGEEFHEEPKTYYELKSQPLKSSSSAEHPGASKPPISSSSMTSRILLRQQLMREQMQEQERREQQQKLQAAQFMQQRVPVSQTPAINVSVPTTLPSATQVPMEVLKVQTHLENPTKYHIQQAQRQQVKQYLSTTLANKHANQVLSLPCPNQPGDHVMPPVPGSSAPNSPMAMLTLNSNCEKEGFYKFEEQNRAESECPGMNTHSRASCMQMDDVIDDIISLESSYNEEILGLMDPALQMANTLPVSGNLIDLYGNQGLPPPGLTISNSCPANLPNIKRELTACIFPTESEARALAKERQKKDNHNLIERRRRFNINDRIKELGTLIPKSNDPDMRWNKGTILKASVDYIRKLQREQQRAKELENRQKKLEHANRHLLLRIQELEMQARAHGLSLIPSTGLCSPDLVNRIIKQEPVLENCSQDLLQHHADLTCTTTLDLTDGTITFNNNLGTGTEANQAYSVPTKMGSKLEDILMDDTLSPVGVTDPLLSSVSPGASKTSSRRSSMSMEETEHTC

[2] = biological target: Heat shock protein HSP 90-alpha (Homo sapiens, UniProt P07900); format: functional, organism-based
[3] = test system: Streptococcus sp. 'group A'; experiment: growth inhibition of control SK(-) GAS strain, dose response, counter-screen for streptokinase expression inhibitor project, luminescence, kanamycin, BacTiterGlo, confirmation (AID 1900); format: functional, organism-based
[4] = test system: Streptococcus; experiment: Group A Streptococcus viability loss, dose response, counter-screen for streptokinase expression inhibitor project, luminescence, BacTiterGlo (AID 1915); format: functional, organism-based;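 also: potency for reduction of bacterial viability or growth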
[5] = biological target: T2, Streptokinase A (Streptococcus pyogenes serotype M1, UniProt P10520); experiment: S. pyogenes streptokinase expression inhibitors, potency, dose response, plasminogen activation absorbance, OD405 (AID 1914); format: functional, Streptococcus pyogenes M1 GAS;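 also: secreted streptokinase activity via plasminogen activation per viability signal from cell pellet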
T2 sequence (P10520 whole entry): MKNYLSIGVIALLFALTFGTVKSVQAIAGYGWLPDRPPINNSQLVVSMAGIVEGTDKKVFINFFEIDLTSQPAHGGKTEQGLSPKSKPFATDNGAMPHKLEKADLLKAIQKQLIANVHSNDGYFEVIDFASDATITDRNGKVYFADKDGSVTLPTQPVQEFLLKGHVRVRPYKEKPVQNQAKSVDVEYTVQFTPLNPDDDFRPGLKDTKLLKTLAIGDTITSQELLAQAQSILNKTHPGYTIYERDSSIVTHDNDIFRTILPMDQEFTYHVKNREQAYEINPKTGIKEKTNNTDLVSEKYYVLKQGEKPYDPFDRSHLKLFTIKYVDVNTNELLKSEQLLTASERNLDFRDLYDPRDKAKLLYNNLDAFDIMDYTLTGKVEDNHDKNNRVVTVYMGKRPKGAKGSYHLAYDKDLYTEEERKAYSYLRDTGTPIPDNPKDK

[6] = biological target: FAD-linked sulfhydryl oxidase ALR (Homo sapiens, UniProt P55789); experiment: inhibitors of human ALR sulfhydryl oxidase, dose response, biochemical, H2O2 detection, luminescence, cherry-pick (AID 493248)
[7] = biological target: Nonstructural protein 1 (Influenza A virus, UniProt Q194T2); format: functional, Influenza A virus (A/California/07/2009(H1N1))
[8] = test system: INS1; experiment: beta cell apoptosis inhibitors, cytokine rescue, dose response, luminescence, retest (AID 449756); format: functional, cell-based; details: Rattus norvegicus, INS1;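 also: cell death triggered by IL-1 beta plus TNF-alpha plus IFN-gamma mixture; protective hits raise ATP signal compared with cytokine alone wells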
[9] = biological target: T3, Rac GTPase-activating protein 1 (Homo sapiens, UniProt Q9H0H5); experiment: MgcRacGAP GTPase-activating activity inhibitors, confirmation, biochemical, ADP Hunter fluorescence, primary and confirmatory (AID 624330); format: functional
T3 sequence (Q9H0H5 whole entry): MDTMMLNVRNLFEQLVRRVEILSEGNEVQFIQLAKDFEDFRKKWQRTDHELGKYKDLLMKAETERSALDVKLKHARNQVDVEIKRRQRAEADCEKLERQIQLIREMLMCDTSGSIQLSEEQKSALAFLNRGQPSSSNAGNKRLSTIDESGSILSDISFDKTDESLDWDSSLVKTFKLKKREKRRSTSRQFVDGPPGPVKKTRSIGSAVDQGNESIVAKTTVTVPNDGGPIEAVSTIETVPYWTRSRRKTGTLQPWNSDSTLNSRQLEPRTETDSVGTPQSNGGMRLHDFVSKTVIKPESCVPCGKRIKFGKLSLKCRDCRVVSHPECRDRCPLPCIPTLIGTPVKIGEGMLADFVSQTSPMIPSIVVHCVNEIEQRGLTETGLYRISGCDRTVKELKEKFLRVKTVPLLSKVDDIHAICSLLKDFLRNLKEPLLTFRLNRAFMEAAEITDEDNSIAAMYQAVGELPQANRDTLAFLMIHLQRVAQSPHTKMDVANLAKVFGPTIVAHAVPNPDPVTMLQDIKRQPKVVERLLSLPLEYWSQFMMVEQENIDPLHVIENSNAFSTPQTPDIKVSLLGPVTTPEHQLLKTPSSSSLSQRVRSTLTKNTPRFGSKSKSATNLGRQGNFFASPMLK

[10] = biological target: Large T antigen (Simian virus 40, UniProt P03070); format: functional, Betapolyomavirus macacae;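 also: Confirmatory-stage PubChem screen for compounds that inhibit SV40 T antigen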
[11] = biological target: T4, DNA repair protein RAD52 homolog (Homo sapiens, UniProt P43351); format: functional, biochemical
T4 sequence (P43351 whole entry): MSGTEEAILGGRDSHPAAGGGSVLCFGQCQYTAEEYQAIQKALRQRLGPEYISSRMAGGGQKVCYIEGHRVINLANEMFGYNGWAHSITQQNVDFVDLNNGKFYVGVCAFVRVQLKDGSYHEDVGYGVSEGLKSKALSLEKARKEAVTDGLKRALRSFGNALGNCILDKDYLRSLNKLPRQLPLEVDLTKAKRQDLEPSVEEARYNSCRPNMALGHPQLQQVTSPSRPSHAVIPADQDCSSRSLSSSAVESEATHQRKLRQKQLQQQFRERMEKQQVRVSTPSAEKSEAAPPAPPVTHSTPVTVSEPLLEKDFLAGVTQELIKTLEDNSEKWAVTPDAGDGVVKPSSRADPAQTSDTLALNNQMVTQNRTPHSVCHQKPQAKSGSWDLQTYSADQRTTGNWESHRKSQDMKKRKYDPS

[12] = test system: P388/ADR; experiment: cells; format: functional; details: Mus musculus
[13] = test system: P388; experiment: cells; format: functional; details: Mus musculus
[14] = intracellular Trypanosoma cruzi inhibitors in host cells – cell-based, plate reader, cherry-pick samples, set 3, dose response (AID 651818); format: functional;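 also: compounds incubated with infected cells for about four days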
[15] = inhibitors of intracellular T. cruzi replication, confirmation, NIH3T3 host cells, beta-gal luminescence (AID 2044); format: functional, cell-based;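 also: intracellular parasites grown in NIH/3T3 mouse fibroblasts as host cells; luminescent beta-galactosidase reporter signal from transgenic T. cruzi replicating inside host cells; inhibitors lower the luminescence signal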
[16] = cytotoxicity toward NIH3T3 fibroblasts, dose response, counter-screen, cell-based, ATP luminescence, mouse fibroblasts (AID 2010); format: functional;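 also: cells exposed to compound for about 90 hours before reading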
[17] = Luminescence Cell-Based Dose Retest to Confirm Inhibitors of Cancer Stem Cells. [Related pubchem assays (depositor defined):AID2717, AID2721]; format: functional; details: Homo sapiens
[18] = biological target: T5, Zinc finger protein mex-5 (Caenorhabditis elegans, UniProt Q9XUB2); experiment: MEX-5/TCR-2 RNA interaction inhibitors, dose response, biochemical, C. elegans, fluorescence polarization (AID 1960)
T5 sequence (Q9XUB2 whole entry): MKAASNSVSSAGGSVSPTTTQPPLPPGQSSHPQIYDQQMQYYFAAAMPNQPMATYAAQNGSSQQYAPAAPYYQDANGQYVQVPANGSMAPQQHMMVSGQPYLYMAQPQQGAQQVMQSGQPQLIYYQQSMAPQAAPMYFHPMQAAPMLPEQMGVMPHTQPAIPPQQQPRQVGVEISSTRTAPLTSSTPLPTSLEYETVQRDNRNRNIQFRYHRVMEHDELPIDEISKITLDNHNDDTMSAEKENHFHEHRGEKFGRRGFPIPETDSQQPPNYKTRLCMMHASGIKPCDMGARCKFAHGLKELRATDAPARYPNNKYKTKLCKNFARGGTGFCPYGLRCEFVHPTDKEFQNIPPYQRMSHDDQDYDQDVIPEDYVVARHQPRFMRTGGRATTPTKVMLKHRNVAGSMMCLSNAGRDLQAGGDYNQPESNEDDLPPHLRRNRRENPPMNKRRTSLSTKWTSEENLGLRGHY

[19] = biological target: T6, RNA-binding protein pos-1 (Caenorhabditis elegans, UniProt G5EF15); experiment: inhibitors of POS-1/mex-3 RNA binding, dose response, biochemical, fluorescence polarization (AID 1964);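 also: purified POS-1 fused to maltose binding protein made in E. coli; potency of compounds blocking POS-1 binding to fluorescent RNA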
T6 sequence (G5EF15 whole entry): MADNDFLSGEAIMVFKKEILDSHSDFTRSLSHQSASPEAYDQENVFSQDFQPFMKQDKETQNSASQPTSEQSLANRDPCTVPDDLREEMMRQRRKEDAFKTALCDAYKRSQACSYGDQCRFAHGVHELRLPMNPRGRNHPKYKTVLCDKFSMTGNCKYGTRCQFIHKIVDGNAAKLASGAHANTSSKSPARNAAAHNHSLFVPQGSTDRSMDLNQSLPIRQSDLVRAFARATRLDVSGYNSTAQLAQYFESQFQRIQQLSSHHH

Sequence of FAD-linked sulfhydryl oxidase ALR (P55789 whole entry): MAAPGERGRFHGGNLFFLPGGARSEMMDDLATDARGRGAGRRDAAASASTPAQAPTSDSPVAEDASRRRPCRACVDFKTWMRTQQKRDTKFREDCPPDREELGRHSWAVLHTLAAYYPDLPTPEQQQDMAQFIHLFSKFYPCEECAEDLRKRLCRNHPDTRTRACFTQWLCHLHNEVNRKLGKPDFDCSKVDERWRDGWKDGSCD
Sequence of Nonstructural protein 1 (Q194T2 whole entry): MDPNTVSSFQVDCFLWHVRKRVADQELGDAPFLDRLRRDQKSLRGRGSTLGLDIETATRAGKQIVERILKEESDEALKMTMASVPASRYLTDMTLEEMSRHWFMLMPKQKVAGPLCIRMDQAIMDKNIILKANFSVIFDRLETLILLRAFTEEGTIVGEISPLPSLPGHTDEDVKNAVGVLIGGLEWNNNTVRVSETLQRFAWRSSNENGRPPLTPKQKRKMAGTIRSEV
Sequence of Large T antigen (P03070 whole entry): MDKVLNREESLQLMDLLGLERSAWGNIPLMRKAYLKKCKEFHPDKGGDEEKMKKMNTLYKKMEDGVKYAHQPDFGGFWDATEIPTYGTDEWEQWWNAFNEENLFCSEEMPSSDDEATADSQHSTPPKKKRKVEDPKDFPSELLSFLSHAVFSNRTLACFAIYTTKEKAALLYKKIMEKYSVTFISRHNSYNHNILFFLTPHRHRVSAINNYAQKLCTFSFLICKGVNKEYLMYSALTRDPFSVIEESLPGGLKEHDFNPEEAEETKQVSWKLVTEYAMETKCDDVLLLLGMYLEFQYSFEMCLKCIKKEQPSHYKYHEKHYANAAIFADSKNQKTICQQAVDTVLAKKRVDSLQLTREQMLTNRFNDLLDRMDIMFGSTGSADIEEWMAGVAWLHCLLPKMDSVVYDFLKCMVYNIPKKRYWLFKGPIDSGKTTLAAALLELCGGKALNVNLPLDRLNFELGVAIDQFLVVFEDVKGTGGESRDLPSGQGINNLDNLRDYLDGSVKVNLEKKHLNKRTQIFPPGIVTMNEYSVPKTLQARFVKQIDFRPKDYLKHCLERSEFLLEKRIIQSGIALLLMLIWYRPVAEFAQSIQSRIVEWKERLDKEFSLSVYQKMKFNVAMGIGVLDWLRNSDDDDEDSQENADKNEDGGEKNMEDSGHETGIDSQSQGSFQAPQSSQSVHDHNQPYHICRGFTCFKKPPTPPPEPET

## COc1cccc(C(=O)Nc2ccc3c(cc2=O)[C@@H](NC(C)=O)CCc2cc(OC)c(OC)c(OC)c2-3)c1
[1]
  AC50: 8.43 µM (active)

## Cc1ccc(N/N=C(\C#N)C(=N)S)c(C)c1
[2]
  AC50: 1.84 µM (active)
[3]
  EC50: 32.6 µM (active)
[4]
  EC50: 20.8 µM (active)
[5]
  EC50: > 150 µM (not active)

## O=C(c1ccc2c(c1)OCO2)N1CCN(c2ccccc2)CC1
[6]
  AC50: 13.9 µM (active)

## CC(C)COC(=O)c1ccc2c(c1O)C(=O)c1ccccc1C2=O
[7]
  IC50: 34.6 µM (active)
[8]
  AC50: 10.9 µM (active)

## COc1cc(/C=N/NS(=O)(=O)c2ccc(C)c([N+](=O)[O-])c2)ccc1O
[9]
  IC50: 40.9 µM (active)
[10]
  IC50: 7.27 µM (active)
[6]
  AC50: 0.181 µM (active)

## CN(C)CCCNC(=O)c1ccc(-c2cc3nc(NCc4cccnc4)n(C)c(=O)c3s2)cc1
[11]
  AC50: 13.3 µM (active)

## COc1ccc(C(=O)COC(=O)CN2CC(=O)Oc3ccccc32)cc1Br
[7]
  IC50: 4.25 µM (active)

## Cc1nn(-c2ccccc2)c2sc(-c3nnc(S)o3)cc12
[3]
  EC50: 4.28 µM (active)
[4]
  EC50: 99 µM (active)
[6]
  AC50: 2.63 µM (active)
[5]
  EC50: > 150 µM (not active)

## COC(=O)C12OCC34C(CC5C(C)=CC(=O)C(O)C5(C)C3C(O)C1O)OC(=O)C(OC(=O)CC(C)C)C24 (stereo not drawn)
[12]
  GI50: 0.0216 µM (active)
[13]
  GI50: 0.00154 µM (active)

## CCOc1ccc(C(C)=O)cc1Cn1ccsc1=N
[11]
  AC50: 4.87 µM (active)

## C[C@@H]1CN([C@H](C)CO)C(=O)Cc2cc(NC(=O)Nc3ccccc3)ccc2O[C@@H]1CN(C)Cc1ccc(C(=O)Nc2ccccc2N)cc1
[14]
  AC50: 3.23 µM (active)

## CCCCCCOc1ccc(N2C(=O)CC(N3CCC(C(=O)OCC)CC3)C2=O)cc1 (stereo not drawn)
[2]
  AC50: 2.3 µM (active)

## COc1ccc(CN(C)C[C@@H]2Oc3ccc(NC(=O)Cc4ccccc4)cc3CC(=O)N([C@@H](C)CO)C[C@@H]2C)cc1
[14]
  AC50: 4.08 µM (active)

## Cc1cc(C(=O)Nc2nnc(C3CCCCC3)s2)no1
[6]
  AC50: 5.82 µM (active)

## CC(C)c1ccc2c(c1)C(=O)NC(C)(C)C2
[6]
  AC50: 3.3 µM (active)

## CN(C)CCN1CCN(c2cc(-c3cccc(Cl)c3)nc3ccnn23)CC1
[11]
  AC50: 6.97 µM (active)

## CC(C)(C)C(O)C(Oc1ccc(Cl)cc1)n1cncn1 (stereo not drawn) [TRIADIMENOL]
[15]
  EC50: 1.51 µM (active)
[2]
  AC50: 0.29 µM (active)
[16]
  EC50: > 60 µM (not active)

## C[C@@H]1CN([C@H](C)CO)C(=O)Cc2cc(NC(=O)Nc3ccc(F)cc3)ccc2O[C@H]1CN(C)Cc1ccc(C(F)(F)F)cc1
[14]
  AC50: 7.02 µM (active)

## COc1cc2nc(O)c(C(=O)NCCCN3CCOCC3)c(O)c2cc1OC
[11]
  AC50: 15 µM (active)

## C[C@H](CO)N1C[C@H](C)[C@@H](CN(C)C(=O)Nc2ccc(C(F)(F)F)cc2)Oc2c(NC(=O)Nc3ccc(C(F)(F)F)cc3)cccc2C1=O
[14]
  AC50: 7.68 µM (active)
[17]
  AC50: 3.73 µM (active)

## COc1ccc(C)cc1NC(=O)c1cc2c(CO)cnc(C)c2oc1=N
[6]
  AC50: 7.55 µM (active)

## COc1ccc(-n2nc(C)cc2Nc2ccccc2C(=O)O)cc1
[6]
  AC50: 3.72 µM (active)

## COc1ccc(C2=CC3=C(Br)C(=O)C(C)(OC(=O)c4ccco4)C(=O)C3=CO2)cc1 (stereo not drawn)
[18]
  EC50: 35.9 µM (active)
[2]
  AC50: 4.13 µM (active)
[19]
  EC50: > 300 µM (not active)

## C[C@@H]1CN([C@H](C)CO)C(=O)Cc2cc(NS(=O)(=O)c3ccc(F)cc3)ccc2O[C@@H]1CN(C)S(=O)(=O)c1ccc(Cl)cc1
[14]
  AC50: 2.31 µM (active)

## O=C1c2cccc3cc4ccccc4c(c23)C(=O)N1CCNCCNCCNCCN1C(=O)c2cccc3cc4ccccc4c(c23)C1=O
[12]
  GI50: < 0.0187 µM (active)
[13]
  GI50: < 0.0146 µM (active)

## CC1CCN(C(CC(=O)c2ccccc2)C(=O)c2ccccc2)CC1 (stereo not drawn)
[2]
  AC50: 7.7 µM (active)

## O=C(Cc1ccccc1)NCC(=O)N/N=C/c1ccc([N+](=O)[O-])s1
[1]
  AC50: 16.1 µM (active)
